Experimental data reported in patent US10759748B2, “Compounds as L-cystine crystallization inhibitors and uses thereof” (NEW YORK UNIVERSITY, priority 2011, dated 2020).

Experiments:
[1] = Real time in situ AFM step velocity measurements of L-cystine crystal growth with additive; conditions: for Vo/V (inverse of V/Vo): higher = more effective inhibition; for V/Vo (normalized velocity of step advancement): supersaturated L-cystine solution, lower = more effective inhibition
Protocol: A Digital Instruments (Santa Barbara, Calif.) Nanoscope IIIa Multimode system is used for topographical and lattice imaging. All measurements are performed in contact mode using Veeco NP_B Si3N4 cantilever tips with a spring constant of 0.12 N/m (triangular, 196 μm length, 41 μm width) on a glass cantilever holder, and a liquid cell is created for in situ step velocity measurements. All L-cystine crystals for AFM measurements are prepared by the method described herein. Crystals are transferred onto an AFM specimen disk coated with partially cured (1 hr) UV-curable optical cement (Type SK-9, EMS Acquisition Corp.) by gently pressing the disk against hexagonal platelets or L-cystine needles isolated by filtration (Whatman Nuclepore membrane, 8 μm). The (0001) face of hexagonal platelets is exposed normal to the disk for AFM analysis with growth occurring along equivalent {1010} faces in the lateral directions, while the sides of L-cystine needles are exposed normal to the disc. The partially cured polymer with adhered crystals is completely cured by additional UV radiation (2 hrs) prior to analysis. Measurements of individual step heights for hexagonal L-cystine crystals are acquired in air (contact mode) at a scan rate of 1.00 Hz and 256 samples per line over a 15×15 μm^2 surface area. Integral and proportional gains are set to the highest possible values without obtaining feedback. Four hexagonal crystals (5 areas per crystal) are analyzed for statistical step height distributions, which are calculated from >10^3 individual steps. Lattice-resolved images of crystal surfaces are acquired in water (contact mode) using a scan rate of 112 Hz over a 12×12 nm^2 area.
Real time in situ step velocity measurements of L-cystine growth are assessed along six structurally-equivalent {1010} faces of the hexagonal structure. A liquid cell is created with the glass cantilever tip holder, and working solutions are injected through a 1-mL syringe. Prior to injecting the growth medium (i.e. supersaturated L-cystine solution), crystals are etched with deionized water in the fluid cell for one hour to remove amorphous deposits or impurities that may be present on the surface. Supersaturated solutions (0.5 g/L) are generated by adding L-cystine to deionized water, boiling the solution on a heating mantle for 20 min to completely dissolve the solute, and allowing the solution to cool for 20 min on the heating mantle before transferring the solution (via syringe) to the AFM fluid cell. This method allows the solution to gradually cool to room temperature prior to AFM measurements in an effort to minimize premature nucleation of L-cystine in the growth solution.
The effect of the compound of invention (additives) on crystal growth rates is investigated. Additives are combined with the supersaturated L-cystine following the 20 min cool down period (as discussed above) to avoid denaturing biological additives at higher temperature. A small volume (0.2 mL) of concentrated additive is mixed with 4.8 mL of L-cystine to generate 0.48 g/L L-cystine solutions with additives of varying concentrations. Control measurements without additive are performed in a similar manner, replacing concentrated additive solutions deionized water to maintain a constant L-cystine concentration. Data collection is started immediately after injecting the working solution into the AFM liquid cell. For each measurement, growth is first assessed in the absence of additive, then in the presence of additive on the identical area of the crystal surface to analyze relative changes in step velocity. Measurements are acquired at static conditions without refreshment of growth solution using supersaturated L-cystine solutions […] than the solubility of L-cystine in water, which is reported as 0.4-0.7 mM (pH 7, 25° C.). […] At static conditions, solute is depleted from solution during growth, leading to a slight decrease in the step velocity with increasing time. […]

[2] = pH 7, 25° C.; cited from earlier work

| Structure (SMILES) | Vo/V (inverse of V/Vo) ([1]; additive 0.015 mM) | V/Vo (normalized velocity of step advancement) ([1]; additive 0.015 mM) | other results |
| --- | --- | --- | --- |
| COC(=O)[C@@H](N)CSSC[C@H](N)C(=O)OC [Compound 1, L-cystine dimethyl ester] | 2.62 | 0.38 | – |
| N[C@@H](CSSC[C@H](N)C(=O)Oc1ccccc1)C(=O)Oc1ccccc1 [Compound 2, L-cystine diphenyl ester] | 2.44 | 0.41 | – |
| COC(=O)[C@@H](N)CS [Compound 3, L-cysteine methyl ester] | – | – | Vo/V (inverse of V/Vo) ([1]; additive 0.03 mM): 2.05; V/Vo (normalized velocity of step advancement) ([1]; additive 0.03 mM): 0.49 |
| CCOC(=O)[C@@H](N)CSSC[C@H](N)C(=O)OCC [Compound 4, L-cystine diethyl ester] | 1.79 | 0.56 | – |
| COC(=O)[C@@H](N)CCSSCC[C@H](N)C(=O)OC [Compound 5, L-homocystine dimethyl ester] | 1.59 | 0.63 | – |
| CC(C)OC(=O)[C@@H](N)CSSC[C@H](N)C(=O)OC(C)C [Compound 6, L-cystine diisopropyl ester] | 1.55 | 0.64 | – |
| COC(=O)[C@@H](N)CSSC[C@H](N)C(=O)O [Compound 7, L-cystine methyl ester] | 1.47 | 0.68 | – |
| CC(C)(C)OC(=O)[C@@H](N)CSSC[C@H](N)C(=O)OC(C)(C)C [Compound 8, L-cystine ditert-butyl ester] | 1.43 | 0.7 | – |
| CC(S)C(=O)NCC(=O)O (centres unmarked) [Compound 9, N-(2-Mercapto-propionyl)glycine, reference compound] | – | – | Vo/V (inverse of V/Vo) ([1]; additive 0.03 mM): 1.35; V/Vo (normalized velocity of step advancement) ([1]; additive 0.03 mM): 0.74 |
| COC(=O)[C@@H](N)C/C=C/C[C@H](N)C(=O)OC [Compound 10, L-dimethyl 2,7-diaminooct-4-enedioate] | 1.23 | 0.81 | – |
| CC(C)(C)OC(=O)N[C@@H](CSSC[C@H](NC(=O)OC(C)(C)C)C(=O)O)C(=O)O [Compound 11, Nα,Nα′-di-Boc-L-cystine, reference compound] | – | – | Vo/V (inverse of V/Vo) ([1]; additive 0.09 mM): 1.23; V/Vo (normalized velocity of step advancement) ([1]; additive 0.09 mM): 0.81 |
| COC(=O)[C@@H](N)CCCC[C@H](N)C(=O)OC [Compound 12, L-dimethyl 2,7-diaminooctanedioate] | 1.09 | 0.92 | – |
| N[C@@H](CCCC[C@H](N)C(=O)O)C(=O)O [Compound 14, L-diaminooctanedioic acid] | 1.03 | 0.97 | – |
| NCCSSCCN [Compound 16, cystamine] | 1 | 1 | – |
| N[C@@H](CS)C(=O)O [Compound 17, L-cysteine, reference compound] | – | – | Vo/V (inverse of V/Vo) ([1]; additive 0.03 mM): 1; V/Vo (normalized velocity of step advancement) ([1]; additive 0.03 mM): 1 |
| N[C@@H](CCSSCC[C@H](N)C(=O)O)C(=O)O [Compound 18, L-Homocystine, reference compound] | 0.95 | 1.05 | – |
| COC(=O)[C@@H](N)CO [Compound 19, L-serine methyl ester] | – | – | Vo/V (inverse of V/Vo) ([1]; additive 0.03 mM): 0.93; V/Vo (normalized velocity of step advancement) ([1]; additive 0.03 mM): 1.07 |
| N[C@@H](CSSC[C@H](N)C(=O)O)C(=O)O [L-cystine] | – | – | solubility of L-cystine in water [2]: 400 to 700 µM |
